Experiments:
[1] = test system: barnyardgrass; test: Test A pre-/postemergence herbicide test; assay type: in vivo, Echinochloa crus-galli
How it was run: (§1)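 Visual injury rating on a 0–100 scale (0 no effect, 100 complete control) versus untreated controls, about ten days after treatment in greenhouse. Pre: directed soil spray onto seeded sandy loam. Post: spray to runoff on plants 2–10 cm tall at one- to two-leaf stage.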

[2] = test system: large crabgrass; test: Test A pre-/postemergence herbicide test; assay type: in vivo, Digitaria sanguinalis
How it was run: as §1

[3] = test system: giant foxtail; test: Test A pre-/postemergence herbicide test; assay type: in vivo, Setaria faberi
How it was run: as §1

[4] = test system: morningglory; test: Test A pre-/postemergence herbicide test; assay type: in vivo, Ipomoea spp.
How it was run: as §1

[5] = test system: redroot pigweed; test: Test A pre-/postemergence herbicide test; assay type: in vivo, Amaranthus retroflexus
How it was run: as §1

[6] = test system: velvetleaf; test: Test A pre-/postemergence herbicide test; assay type: in vivo, Abutilon theophrasti
How it was run: as §1

[7] = test system: barnyardgrass; test: Test B pre-/postemergence herbicide test; assay type: in vivo, Echinochloa crus-galli
How it was run: (§2)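 Plants compared with untreated controls 13–15 days post-treatment and given a visual 0–100 injury score. Applications: preemergence to seeds; postemergence at 1- to 4-leaf (2–18 cm); paddy species flooded, 2-leaf stage. Vehicle non-phytotoxic, surfactant included.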

[8] = test system: Surinam grass; test: Test B pre-/postemergence herbicide test; assay type: in vivo, Urochloa decumbens
How it was run: as §2

[9] = test system: cocklebur; test: Test B pre-/postemergence herbicide test; assay type: in vivo, Xanthium strumarium
How it was run: as §2

[10] = test system: corn; test: Test B pre-/postemergence herbicide test; assay type: in vivo, Zea mays
How it was run: as §2

[11] = test system: large crabgrass; test: Test B pre-/postemergence herbicide test; assay type: in vivo, Digitaria sanguinalis
How it was run: as §2

[12] = test system: giant foxtail; test: Test B pre-/postemergence herbicide test; assay type: in vivo, Setaria faberi
How it was run: as §2

[13] = test system: lambsquarters; test: Test B pre-/postemergence herbicide test; assay type: in vivo, Chenopodium album
How it was run: as §2

[14] = test system: morningglory; test: Test B pre-/postemergence herbicide test; assay type: in vivo, Ipomoea coccinea
How it was run: as §2

[15] = test system: pigweed; test: Test B pre-/postemergence herbicide test; assay type: in vivo, Amaranthus retroflexus
How it was run: as §2

[16] = test system: rice; test: Test B pre-/postemergence herbicide test; assay type: in vivo, Oryza sativa; details: preemergence
How it was run: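 Greenhouse pot assay with simultaneous preemergence (treated seed) and postemergence (2–18 cm seedlings) applications of surfactant-containing, non-phytotoxic solvent formulations. Response scored visually 13–15 days later on a 0–100 scale, 100 meaning complete control.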

[17] = test system: velvetleaf; test: Test B pre-/postemergence herbicide test; assay type: in vivo, Abutilon theophrasti
How it was run: as §2

[18] = test system: blackgrass; test: Test B postemergence herbicide test; assay type: in vivo, Alopecurus myosuroides; details: scale 0 (no effect) to 100 (complete control)
How it was run: (§3)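 Formulated test chemicals went onto postemergence plants measuring 2 to 18 cm, at one to four leaves. For the paddy assay, species had reached two leaves. Scoring took place 13–15 days later by eye, relative to untreated plants, using 0 for no effect up to 100 for full control.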

[19] = test system: wheat; test: Test B postemergence herbicide test; assay type: in vivo, Triticum aestivum; set-up: key to Wheat plant response rating: 0 = no effect, 100 = complete control; details: scale 0 (no effect) to 100 (complete control)
How it was run: as §3

[20] = test system: wild oat; test: Test B postemergence herbicide test; assay type: in vivo, Avena fatua; details: scale 0 (no effect) to 100 (complete control)
How it was run: as §3

[21] = test system: rice; test: Test B flooded paddy test; assay type: in vivo, Oryza sativa; details: 1000 g ai/ha, visual rating, scale 0 to 100 (0 no effect, 100 complete control), 13 to 15 days
How it was run: as §3

[22] = test system: small flower umbrella sedge; test: Test B flooded paddy test; assay type: in vivo, Cyperus difformis; details: 1000 g ai/ha, visual rating, scale 0 to 100 (0 no effect, 100 complete control), 13 to 15 days
How it was run: as §3

[23] = test system: ducksalad; test: Test B flooded paddy test; assay type: in vivo, Heteranthera limosa; details: 1000 g ai/ha, visual rating, scale 0 to 100 (0 no effect, 100 complete control), 13 to 15 days
How it was run: as §3

[24] = test system: barnyardgrass; test: Test B flooded paddy test; assay type: in vivo, Echinochloa crus-galli; details: 1000 g ai/ha, visual rating, scale 0 to 100 (0 no effect, 100 complete control), 13 to 15 days
How it was run: as §3

[25] = Postemergence, 500 g ai/ha, 0 to 100 scale, 0 no effect, 100 complete control
[26] = Postemergence, 2000 g ai/ha, 0 to 100 scale, 0 no effect, 100 complete control
[27] = Preemergence, 500 g ai/ha, visual rating, 0 to 100 scale (0 no effect, 100 complete control)
[28] = Preemergence, 2000 g ai/ha, 0 to 100 scale, 0 no effect, 100 complete control
[29] = 500 g ai/ha, visual rating 0-100, 0 no effect, 100 complete control, preemergence
[30] = Postemergence, 500 g ai/ha, visual rating after 13 to 15 days, scale 0 (no effect) to 100 (complete control)
[31] = postemergence, 125 g ai/ha, visual rating, scale 0 (no effect) to 100 (complete control)
[32] = preemergence, 125 g ai/ha, 0 to 100 scale, 0 is no effect, 100 is complete control
[33] = Postemergence, 500 g ai/ha, visual rating after 13 to 15 days
[34] = postemergence, 125 g ai/ha, visual rating

With `CCn1nc(C(C)(C)C)cc1C(=O)Nc1cccc(C(=O)OCC2CC2)c1C` [Compound 93] the “Barnyardgrass plant response rating” value [1, 25] was 20, the “Plant response rating, Barnyardgrass” value [1, 26] was 25 and the “Barnyardgrass plant response rating” value [1, 27] was 25. For the same molecule, the “Barnyardgrass plant response rating” value [1, 28] was 40, the “Crabgrass, Large plant response rating” value [2, 25] was 10 and the “Plant response rating, Crabgrass, Large” value [2, 26] was 15. For the same molecule, the “Crabgrass, Large plant response rating” value [2, 27] was 35, the “Crabgrass, Large plant response rating” value [2, 28] was 70 and the “Foxtail, Giant plant response rating” value [3, 25] was 10. The “Plant response rating, Foxtail, Giant” value [3, 26] was 10, the “Foxtail, Giant plant response rating” value [3, 27] was 35 and the “Foxtail, Giant plant response rating” value [3, 28] was 60. For the same molecule, the “Morningglory plant response rating” value [4, 25] was 5, the “Plant response rating, Morningglory” value [4, 26] was 10 and the “Morningglory plant response rating” value [4, 27] was 5. The “Morningglory plant response rating” value [4, 28] was 20, the “Pigweed plant response rating” value [5, 25] was 20 and the “Plant response rating, Pigweed” value [5, 26] was 30. For the same molecule, the “Pigweed plant response rating” value [5, 27] was 40, the “Pigweed plant response rating” value [5, 28] was 70 and the “Velvetleaf plant response rating” value [6, 25] was 10. For the same molecule, the “Plant response rating, Velvetleaf” value [6, 26] was 15, the “Velvetleaf plant response rating” value [6, 27] was 10 and the “Velvetleaf plant response rating” value ([6]; Preemergence, 2000 g ai/ha, visual rating, 0 to 100 scale (0 no effect, 100 complete control)) was 25. The “Plant response rating, Barnyardgrass” value [7, 29] was 20, the “Plant response rating, Barnyardgrass” value [7, 30] was 10 and the “Barnyardgrass plant response rating” value [7, 31] was 10. For the same molecule, the “Plant response rating, Barnyardgrass” value [7, 32] was 0, the “Plant response rating, Surinam Grass” value [8, 29] was 0 and the “Plant response rating, Surinam Grass” value [8, 30] was 10. For the same molecule, the “Surinam Grass plant response rating” value [8, 31] was 10, the “Plant response rating, Surinam Grass” value [8, 32] was 0 and the “Plant response rating, Cocklebur” value [9, 29] was 0. The “Plant response rating, Cocklebur” value [9, 30] was 50, the “Cocklebur plant response rating” value [9, 31] was 50 and the “Plant response rating, Cocklebur” value [9, 32] was 0. The “Plant response rating, Corn” value [10, 29] was 10, the “Plant response rating, Corn” value [10, 30] was 20 and the “Corn plant response rating” value [10, 31] was 10. The “Plant response rating, Corn” value [10, 32] was 10, the “Plant response rating, Crabgrass, Large” value [11, 29] was 20 and the “Plant response rating, Crabgrass, Large” value [11, 30] was 10. The “Crabgrass, Large plant response rating” value [11, 31] was 10, the “Plant response rating, Crabgrass, Large” value [11, 32] was 10 and the “Plant response rating, Foxtail, Giant” value [12, 29] was 30. The “Plant response rating, Foxtail, Giant” value [12, 30] was 10, the “Foxtail, Giant plant response rating” value [12, 31] was 10 and the “Plant response rating, Foxtail, Giant” value [12, 32] was 10. For the same molecule, the “Plant response rating, Lambsquarters” value [13, 29] was 70, the “Plant response rating, Lambsquarters” value [13, 30] was 90 and the “Lambsquarters plant response rating” value [13, 31] was 60. For the same molecule, the “Plant response rating, Lambsquarters” value [13, 32] was 0, the “Plant response rating, Morningglory” value [14, 29] was 10 and the “Plant response rating, Morningglory” value [14, 30] was 40. For the same molecule, the “Morningglory plant response rating” value [14, 31] was 10, the “Plant response rating, Morningglory” value [14, 32] was 0 and the “Plant response rating, Pigweed” value [15, 29] was 70. For the same molecule, the “Plant response rating, Pigweed” value [15, 30] was 30, the “Pigweed plant response rating” value [15, 31] was 10 and the “Plant response rating, Pigweed” value [15, 32] was 0. For the same molecule, the “Plant response rating, Rice” value ([16]; 500 g ai/ha, visual rating 0-100, 0 no effect, 100 complete control) was 0, the “Plant response rating, Rice” value ([16]; 125 g ai/ha, 0 to 100 scale, 0 is no effect, 100 is complete control) was 0 and the “Plant response rating, Velvetleaf” value [17, 29] was 10. The “Plant response rating, Velvetleaf” value [17, 30] was 10, the “Velvetleaf plant response rating” value [17, 31] was 10 and the “Plant response rating, Velvetleaf” value [17, 32] was 0. For the same molecule, the “Plant response rating, Blackgrass” value [18, 33] was 10, the “Blackgrass plant response rating” value [18, 34] was 10 and the “Plant response rating, Wheat” value [19, 33] was 10. For the same molecule, the “Wheat plant response rating” value [19, 34] was 10, the “Plant response rating, Oat, Wild” value [20, 33] was 10 and the “Oat, Wild plant response rating” value [20, 34] was 10. For the same molecule, the “Rice plant response rating” value [21] was 20, the “Sedge, Umbrella plant response rating” value [22] was 70 and the “Ducksalad plant response rating” value [23] was 10. For the same molecule, the “Barnyardgrass plant response rating” value [24] was 0.

— US20060069132A1, “Azolecarboxamide herbicides” (priority 2004, published 2006)
